# Experimental data reported in patent publication US20090143388A1, “TREATMENT OF BRAIN DISORDERS” (priority 2007, published 2009).
# Entries after “also recorded” stand apart in the source; their conditions may differ.
# How the values were obtained:
# [1] = system: MPP^+-induced hydroxyl radical (.OH) in the mitochondria; assay: MPP+-induced hydroxyl radical (2,3-DHBA) production in sub-mitochondrial particles; assay type: biochemical; conditions: for MPP+-induced 2,3-DHBA (OH adduct of salicylate) production in the mitochondria: irsogladine 0.01-1 mM, MPP+ 100 μM, sub-mitochondrial particles, 30 min; for increase in the production of 2,3-DHBA (OH production): sub-mitochondrial particles incubated with MPP+ (100 μM)
# Description: FIG. 1. Irsogladine scavenges MPP^+-induced OH from the mitochondria. Sub-mitochondrial particles were incubated with the neurotoxic metabolite of MPTP, 1-methyl-4-phenyl pyridinium ion (MPP^+) and salicylic acid in the presence and absence of irsogladine. The resulting OH adducts of salicylate, 2,3-dihydroxy benzoic acid (2,3-DHBA) was assayed using a HPLC equipped with electrochemical detector.
# Irsogladine scavenges MPP^+-induced hydroxyl radical (.OH) in the mitochondria. The oxidative metabolite of MPTP, 1-methyl-4-phenylpyridinium ion (MPP^+) is selectively taken into the dopaminergic neurons through dopamine transporters, and sequestered in the mitochondria.
# Preparation of sub-mitochondrial particles and estimation of hydroxyl radical. Mitochondrial P2 fraction was obtained by making a 10% homogenate of the cerebral cortex, with a glass-Teflon homogenizer in 0.32 M sucrose in cold 10 mM potassium phosphate buffer, pH 7.2. The homogenate was centrifuged at 1,000×g for 10 min at 4° C. using a Sorvall centrifuge. The supernatant was centrifuged at 10,000×g for 30 min. The pellet was resuspended in the same volume of ice-cold 50 mM Tris in 10 mM potassium phosphate buffer (pH 7.2) and centrifuged at 10,000×g for 30 min. This step was repeated once. The pellet thus obtained was suspended in the same volume of ice-cold 10 mM potassium phosphate buffer, pH 7.2 and kept overnight at −20° C. The mitochondrial suspension was thawed, and the protein content was estimated.
# The .OH adduct of salicylate, 2,3-dihydroxybenzoic acid (DHBA), was assayed employing HPLC-electrochemistry as described earlier. The ex-vivo OH production was tested in sub-mitochondrial particles. Mitochondrial fraction was incubated with MPP^+ (100 μM) and phosphate buffer (0.1 M) for 5 min. Sodium salicylate (0.75 mM) and different concentrations of irsogladine (0.01-1 mM) were added 5 min after the addition of MPP^+ and incubated for 30 min. The reaction was stopped by adding equal amount of ice-cold perchloric acid (0.1 M) containing 0.01% EDTA, kept on ice for 30 min and then centrifuged at 10,000×g for 5 min. The supernatant was injected into the HPLC system for the assay of 2,3-DHBA. Standard solution containing 2,3-DHBA was injected prior to and after the analyses of the samples, and the products formed are expressed as pmol/mg protein/min.
# [2] = system: Balb/c mice; assay: Striatal DA, DOPAC and HVA by HPLC-electrochemistry in MPTP-treated mice; assay type: in vivo
# Description: FIG. 2. Irsogladine reverses MPTP-induced reductions in striatal DA metabolism. Striatal DA (A) and its metabolites, DOPAC (B) and HVA (C) were assayed employing a sensitive HPLC-electrochemical procedure on the 5th day following the administration of MPTP (30 mg/kg; administered twice, 16 h apart, i.p.). Irsogladine (25, 50 and 100 mg/kg, p.o.) was administered for two days at 12 h intervals following the second MPTP injection. Results given are mean±S.E.M., n=6-8 for control groups and 10-12 for MPTP-treated groups (*p<0.05 vs. control; Student's t-test).
# (§1) Animals. Adult male Balb/c mice, weighing 20-25 g were used in the present study. They were housed under standard conditions of temperature (22±1° C.), humidity (60±5%) and illumination (12-h light/dark cycle). The experimental protocol met the National Guidelines on the ‘Proper Care and Use of Animals in Laboratory Research’ (Indian National Science Academy, New Delhi, 2000) and was approved by the Animal Ethics Committee of the Institute. The procedures adhered to the NIH Guidelines for the Care and Use of Laboratory Animals.
# (§2) Experimental design. The animals were divided into eight groups. The first four groups of animals received either vehicle (0.5% CMC) or different doses of irsogladine (25, 50, and 100 mg/kg). The fifth group of animals was administered with MPTP. The remaining three groups received the two doses of MPTP, and different doses of irsogladine (25, 50, and 100 mg/kg). Each of the control groups consisted of 6-8 animals; while MPTP treated groups consisted of 10-12 animals. The total period of study was 5 days. Each experiment was repeated at least twice on separate days.
# (§3) MPTP was dissolved in normal saline and administered intraperitonially (i.p.), twice, 16 h apart, at the dose of 30 mg/kg to mice. The animals received the first injections at 1700 h and the second at 0900 h the next day. Different doses of irsogladine (25, 50, and 100 mg/kg) were suspended in 0.5% sodium CMC and administered to control and MPTP-treated mice. Irsogladine administration started 30 min after the second MPTP injection and continued at an interval of 12 h for the next two days. The volume of injection was 10 μl/g body weight.
# (§4) Analysis of biogenic amines by HPLC-electrochemistry. DA, DOPAC, HVA, 5-HT, and 5-HIAA were assayed employing HPLC equipped with an electrochemical detector. Animals were sacrificed on the 5th day by cervical dislocation. Striata were quickly dissected out from the left and right hemispheres of the brain, weighed, sonicated in chilled HClO4 (0.1 M) containing 0.05% EDTA and centrifuged at 12,500×g for 5 min. The supernatant was injected into an HPLC-ECD system (Merck-Hitachi, Germany). The biogenic amines were separated on an ion-pair Ultrasphere RP analytical column (Beckmann, Calif.). The mobile phase contained 8.65 mM heptane sulfonic acid, 0.27 mM EDTA, 13% acetonitrile (HPLC grade), 0.45% triethylamine, and 0.25% phosphoric acid (v/v). The flow rate was 0.7 ml/min and the glassy carbon working electrode was kept at 0.74 V.
# [3] = system: Balb/c mice; assay: Striatal 5-HT and 5-HIAA levels by HPLC-electrochemistry; assay type: in vivo; conditions: for level of 5-HIAA, in words / level of serotonin (5-HT), in words: animals treated with MPTP and/or irsogladine; for 5-HIAA (pmol/mg tissue; Mean ± SEM) / 5-HT (pmol/mg tissue; Mean ± SEM): striatum, 5th day
# Description: Serotonin (5-HT) and its metabolite were assayed employing a sensitive HPLC-electrochemical procedure in the striata of Balb/c mice on 5th day following MPTP treatment (30 mg/kg; administered twice, 16 h apart, i.p.). Irsogladine (25, 50 and 100 mg/kg, p.o.) was administered for two days at 12 h intervals following second MPTP injection. Results given are mean±S.E.M., n=6-8 for control groups and 10-12 for MPTP-treated groups
# as §1, §2, §3, §4
# [4] = system: Balb/c mice; assay: MPTP-induced akinesia; assay type: in vivo
# Description: (§5) FIG. 3. Effect of irsogladine on MPTP-induced akinesia (A) and catalepsy (B). Assessment of catalepsy was undertaken 2 h after the treatment of MPTP in Balb/c mice. […] Results given are mean±S.E.M., n=6-8 for control group and 10-12 for MPTP-treated groups (*p<0.01 vs. control; Mann-Whitney Rank Sum test).
# as §2, §3
# Akinesia. Akinesia was measured by noting the latency in seconds (s) of the animals to move all four limbs and the test was terminated if the latency exceeded 180 s. Each animal was initially acclimatized for 5 min on a wooden elevated platform (40 cm×40 cm×30 cm) used for measuring akinesia in mice. Using a stopwatch, the time taken (s) by the animal to move all the four limbs was recorded. This exercise was repeated five times for each animal.
# [5] = system: Balb/c mice; assay: MPTP-induced catalepsy; assay type: in vivo; conditions: for catalepsy (rigidity), drug alone: irsogladine alone, no MPTP
# Description: as §5, §2, §3
# Catalepsy. The term implies the inability of an animal to correct an externally imposed posture. Catalepsy was measured by placing the animals on a flat horizontal surface with both the hind limbs on a square wooden block (3 cm high) and the latency in seconds was measured to move the hind limbs from the block to the ground. The animals were initially acclimatized on the wooden platform.
# [6] = system: Balb/c mice; assay: Swim-ability (swim score) after MPTP; assay type: in vivo; conditions: 4th day
# Description: FIG. 4. Irsogladine attenuates MPTP-induced swim disability in mice. Effect of different doses of Irsogladine on the swimming ability of Balb/c mice was tested in warm water (27±2° C.) on the fourth day following the treatment of MPTP (30 mg/kg, i.p., twice, 16 h apart). Swim-scores were recorded on a performance intensity scale of 0-3 for all the animals for 10 min. Results given are mean±S.E.M., n=6-8 for control groups and 10-12 for MPTP-treated groups (p≦0.05; vs. control; Wilcoxon Signed Rank test for group comparison).
# as §2
# MPTP was dissolved in normal saline and administered intraperitonially (i.p.), twice, 16 h apart, at the dose of 30 mg/kg to mice. The animals received the first injections at 1700 h and the second at 0900 h the next day. […]
# [7] = irsogladine post-treatment in MPTP-treated mice
# [8] = irsogladine 25 mg/kg p.o. + MPTP
# [9] = irsogladine 25 mg/kg p.o., no MPTP
# [10] = irsogladine 50 mg/kg p.o. + MPTP
# [11] = irsogladine 50 mg/kg p.o., no MPTP
# [12] = irsogladine 100 mg/kg p.o. + MPTP
# [13] = irsogladine 100 mg/kg p.o., no MPTP
# [14] = highest dose of irsogladine in MPTP-treated mice
# [15] = irsogladine 25, 50, 100 mg/kg p.o. in MPTP-treated mice, 2 h after second MPTP injection
# [16] = MPTP alone (30 mg/kg i.p. twice, 16 h apart)
# [17] = MPTP 30 mg/kg i.p. twice, 2 h after second injection, compared to saline treated mice
smiles,measurement,setting,value
"Nc1nc(N)nc(-c2cc(Cl)ccc2Cl)n1 [Irsogladine, 2,4-diamino-6-(2,5-dichlorophenyl)-s-triazine]","MPP+-induced 2,3-DHBA (OH adduct of salicylate) production in the mitochondria",[1],significantly attenuated
same,"MPP+-induced 2,3-DHBA (OH adduct of salicylate) production in the mitochondria",[1]; listed as irsogladine,dose-dependently scavenged
same,protection of striatal DA,"[2]; irsogladine 25, 50 and 100 mg/kg p.o., b.i.d. for 2 days, post-treatment in MPTP-treated mice, 5th day",significant dose-dependant protection
same,alteration of striatal DA,[2]; irsogladine alone in control animals,did not cause significant alteration
same,reversal of MPTP-induced reduction of striatal DOPAC,[2]; [7],dose-dependant reversal
same,reversal of MPTP-induced reduction of striatal HVA,[2]; [7],dose-dependant reversal
same,alteration of striatal DOPAC level,[2]; irsogladine treatment alone,did not cause any significant alterations
same,alteration of striatal HVA level,[2]; irsogladine treatment alone,did not cause any significant alterations
same,"level of 5-HIAA, in words",[3],not altered
same,"level of serotonin (5-HT), in words",[3],not altered
same,5-HIAA (pmol/mg tissue; Mean ± SEM),[3]; [8],2.11 ± 0.17 pmol/mg tissue
same,5-HT (pmol/mg tissue; Mean ± SEM),[3]; [8],2.64 ± 0.24 pmol/mg tissue
same,5-HIAA (pmol/mg tissue; Mean ± SEM),[3]; [9],2.32 ± 0.31 pmol/mg tissue
same,5-HT (pmol/mg tissue; Mean ± SEM),[3]; [9],2.52 ± 0.34 pmol/mg tissue
same,5-HIAA (pmol/mg tissue; Mean ± SEM),[3]; [10],2.88 ± 0.17 pmol/mg tissue
same,5-HT (pmol/mg tissue; Mean ± SEM),[3]; [10],2.97 ± 0.27 pmol/mg tissue
same,5-HIAA (pmol/mg tissue; Mean ± SEM),[3]; [11],2.99 ± 0.29 pmol/mg tissue
same,5-HT (pmol/mg tissue; Mean ± SEM),[3]; [11],2.96 ± 0.61 pmol/mg tissue
same,5-HIAA (pmol/mg tissue; Mean ± SEM),[3]; [12],2.01 ± 0.09 pmol/mg tissue
same,5-HT (pmol/mg tissue; Mean ± SEM),[3]; [12],2.68 ± 0.24 pmol/mg tissue
same,5-HIAA (pmol/mg tissue; Mean ± SEM),[3]; [13],2.32 ± 0.16 pmol/mg tissue
same,5-HT (pmol/mg tissue; Mean ± SEM),[3]; [13],2.52 ± 0.28 pmol/mg tissue
same,"attenuation of MPTP-induced akinesia, highest dose",[4]; [14],complete
same,attenuation of MPTP-induced akinesia,[4]; [15],dose-dependently reduced; also recorded: dose-dependently attenuated
same,"akinesia, drug alone","[4]; irsogladine alone, no MPTP",absent
same,"attenuation of MPTP-induced catalepsy, highest dose",[5]; [14],complete
same,attenuation of MPTP-induced catalepsy,[5]; [15],dose-dependently reduced; also recorded: dose-dependently attenuated
same,"catalepsy (rigidity), drug alone",[5],does not cause catalepsy
same,"catalepsy (rigidity), drug alone",[5]; listed as irsladine,absent
same,improvement of swim score,"[6]; irsogladine post-treatment in MPTP-treated mice, dose-dependently",significantly improved
"C[n+]1ccc(-c2ccccc2)cc1 [MPP^+, 1-methyl-4-phenylpyridinium ion]","increase in the production of 2,3-DHBA (OH production)",[1],5 fold
same,"increase in the production of 2,3-DHBA (OH production)",[1]; listed as MPP+,about 5 fold
"CN1CC=C(c2ccccc2)CC1 [MPTP, 1-methyl-4-phenyl-1,2,3,6-tetrahydropyridine]",depletion of striatal DA,"[2]; MPTP 30 mg/kg i.p., 2 times 16 h apart, 5th day, compared to saline-injected mice",55%
same,"level of 5-HIAA, in words",[3],not altered
same,"level of serotonin (5-HT), in words",[3],not altered
same,5-HIAA (pmol/mg tissue; Mean ± SEM),[3]; [16],2.50 ± 0.24 pmol/mg tissue
same,5-HT (pmol/mg tissue; Mean ± SEM),[3]; [16],2.77 ± 0.31 pmol/mg tissue
same,akinetic behavior induced by MPTP,[4]; [17],significant akinetic
same,cataleptic behavior induced by MPTP,[5]; [17],cataleptic
same,swim score after MPTP,"[6]; MPTP 30 mg/kg i.p. twice, vs sham-treated animals, from the 2nd minute onwards",significant reduction
